Where two headings read alike, the source gives them in different places.
What was measured:
PKMYT1 = target: T1, PKMYT1 (Homo sapiens, UniProt Q99640); assay: ADP-Glo PKMYT1 ATP-depletion assay; conditions: 50 nM PKMYT1, 13.3 nM CDK1, 88 μM ATP, 120 minutes at RT, read-out: Biochemical IC50
T1 construct: PKMYT1 (93 kD, full length, N-terminal GST tag from Signal Chem); GST (N); purchased Signal Chem
T1 sequence (Q99640 1-499): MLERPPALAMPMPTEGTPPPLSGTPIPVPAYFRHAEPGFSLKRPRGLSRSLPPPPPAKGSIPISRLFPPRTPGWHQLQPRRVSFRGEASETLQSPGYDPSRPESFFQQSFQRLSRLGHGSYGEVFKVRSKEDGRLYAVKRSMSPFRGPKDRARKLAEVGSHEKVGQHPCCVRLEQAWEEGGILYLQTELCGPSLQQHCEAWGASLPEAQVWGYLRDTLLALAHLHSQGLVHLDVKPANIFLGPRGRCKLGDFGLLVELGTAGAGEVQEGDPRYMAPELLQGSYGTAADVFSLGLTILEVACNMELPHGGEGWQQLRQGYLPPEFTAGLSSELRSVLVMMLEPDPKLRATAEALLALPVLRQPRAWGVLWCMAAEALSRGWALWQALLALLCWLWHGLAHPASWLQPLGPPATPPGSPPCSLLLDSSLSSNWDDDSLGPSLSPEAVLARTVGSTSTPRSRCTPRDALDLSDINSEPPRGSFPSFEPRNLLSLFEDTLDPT
Experimental: (§1) Biochemical IC50 values were determined via ADP-Glo™ assay. Cellular IC50 values were determined via AlphaLISA assay.
ADP-Glo™ PKMYT1 ATP-depletion assay. The activity of PKMYT1 is measured using a luciferase-luciferin based ATP detection reaction to quantify ATP depletion resulting from kinase-catalyzed phosphoryl transfer to CDK1 or autophosphorylation of PKMYT1. The ADP generated as a byproduct of the reaction is converted to ATP and used to drive a luciferase reaction. Test compounds were dissolved in DMSO and dispensed into Corning 3824 384-well plates prior to the experiment such that the final DMSO concentration was <10%. To the compounds was added 3 μL of PKMYT1 (93 kD, full length, N-terminal GST tag from Signal Chem). The reaction was started by the addition of 2 μL of CDK1 (58 kDa, full length, N-terminal GST tag from Signal Chem) and ATP in assay buffer (50 mM Hepes, 40 mM NaCl, 10 mM MgCl2, 1 mM DTT, 0.1 mg/mL BSA, 2.5 mM MnCl2). Final assay concentrations were 50 nM PKMYT1, 13.3 nM CDK1, and 88 μM ATP. Plates were centrifuged for 1 minute at 1000 RPM and incubated at RT for 120 minutes. After the incubation period, ADP-Glo™ reagent was added and the plates were incubated for another 40 minutes before finally adding the kinase detection reagent, 30 minutes after the addition, plates were placed on a PHERAstar® plate reader and read using the Luminescence Protocol, integration time at 0.5 seconds.

[1] = system: phosphorylation of CDK1 at Thr14 in HCC1806 cells; assay: Cell lysate AlphaLISA assay measuring inhibition of phosphorylation of CDK1 Thr14; format: cell-based; conditions: compounds incubated 4 hours, AlphaLISA SureFire Ultra CDK1 Thr14, read-out: Cellular IC50
Experimental: as §1
Cell lysate AlphaLISA® assay measuring inhibition of phosphorvlation of CDK1 Thr14. Inhibition of phosphorylation of CDK1 at Thr14 was determined using AlphaLISAn SureFire® Ultra™ Kit from Perkin Elmer (ALSU-PCDK1-A10K). HCC1806 cells were seeded at 2K cells per well (50 μl/well) in 384-well plates (Corning 3570) and stored overnight at 37° C. and 5% CO2. The following day, the compounds dissolved in DMSO were introduced to the cells and incubated for 4 hours at 37° C. and 5% CO2. The cells were then washed with PBS using Blue® Washer and 10 μl of lysis buffer containing protease inhibitor was added. The plate was placed on an orbital shaker (at 4° C.) for 30 minutes and stored overnight at −80° C. for complete lysing. The next day, the plates were thawed at room temperature for at least 30 min. Reagents were prepared in a dimmed light setting (<100 lumens). The assay was run by first adding 5 μl of the acceptor mix (reaction buffer 1: reaction buffer 2:activation buffer:acceptor beads 47:47:4:2), covering the plate with foil, shaking for 2 minutes, and incubating at RT for 60 minutes. The donor mix (dilution buffer:donor beads 47:3) was then added at 5 μl per well, placed on the shaker for 2 minutes and incubated at RT for 60 minutes before reading the plates on a PHERAstar® plate reader. The results were normalized to DMSO (0% Inhibition) and 3 μM of reference compound.

IC50 (PKMYT1)	IC50 ([1]; Homo sapiens, HCC1806, 4 h)	IC50 [1]	Compound
50 to 500 nM	≥ 5000 nM	–	Cc1c(O)cccc1-c1c(N)c(C(N)=O)nc2c1cnn2C [Compound 56, 5-Amino-4-(3-hydroxy-2-methylphenyl)-1-methyl-pyrazolo[3,4-b]pyridine-6-carboxamide]
< 50 nM	< 50 nM	–	CCn1cc(C(N)=O)c2c(-c3cccc(O)c3C)c(N)c(C(N)=O)nc21 (atropisomer, axis not shown; (M)) [Compound 96, (M)-5-amino-1-ethyl-4-(3-hydroxy-2-methylphenyl)-1H-pyrrolo[2,3-b]pyridine-3,6-dicarboxamide]
< 50 nM	50 to 500 nM	–	Cn1cc(C#N)c2c(-c3cncc(Cl)c3Cl)c(N)c(C(N)=O)nc21 [Compound 66, 5-Amino-3-cyano-4-(4,5-dichloropyridin-3-yl)-1-methyl-1H-pyrrolo[2,3-b]pyridine-6-carboxamide]
< 50 nM	< 50 nM	–	Cc1ccc(O)c(C)c1-c1c(N)c(C(N)=O)nc2c1ncn2C1CC1 (single isomer, unassigned) [Compound 77, (P)-6-amino-3-cyclopropyl-7-(3-hydroxy-2,6-dimethylphenyl)-3H-imidazo[4,5-b]pyridine-5-carboxamide]
1000 to 5000 nM	–	≥ 5000 nM	Cc1c(O)cccc1-c1c(N)c(C(N)=O)nc2c1c(C#N)nn2C (single isomer, unassigned) [Compound 59, (P)-5-amino-3-cyano-4-(3-hydroxy-2-methylphenyl)-1-methyl-1H-pyrazolo[3,4-b]pyridine-6-carboxamide]
< 50 nM	< 50 nM	–	CCn1cc(-c2cn[nH]c2)c2c(-c3c(C)ccc(O)c3C)cc(C(N)=O)nc21 (single isomer, unassigned) [Compound 69, (P)-1-Ethyl-4-(3-hydroxy-2,6-dimethylphenyl)-3-(1H-pyrazol-4-yl)-1H-pyrrolo[2,3-b]pyridine-6-carboxamide]
< 50 nM	< 50 nM	–	CCn1cnc2c(-c3c(C)ccc(O)c3C)c(N)c(C(N)=O)nc21 (atropisomer, axis not shown; (P)) [Compound 81, (P)-6-amino-3-ethyl-7-(3-hydroxy-2,6-dimethylphenyl)-3H-imidazo[4,5-b]pyridine-5-carboxamide]
< 50 nM	< 50 nM	–	CCn1cc(-c2ncon2)c2c(-c3c(C)ccc(O)c3C)cc(C(N)=O)nc21 (atropisomer, axis not shown; (P)) [Compound 71, (P)-1-Ethyl-4-(3-hydroxy-2,6-dimethylphenyl)-3-(1,2,4-oxadiazol-3-yl)-1H-pyrrolo[2,3-b]pyridine-6-carboxamide]
< 50 nM	< 50 nM	–	Cc1c(O)cccc1-c1c(N)c(C(N)=O)nc2c1c(C#N)cn2-c1ncccc1F (atropisomer, axis not shown; (M)) [Compound 78, (M)-5-Amino-3-cyano-1-(3-fluoropyridin-2-yl)-4-(3-hydroxy-2-methylphenyl)-1H-pyrrolo[2,3-b]pyridine-6-carboxamide]
< 50 nM	< 50 nM	–	Cc1ccc(O)c(C)c1-c1c(N)c(C(N)=O)cc2c1ncn2C(F)(F)F (atropisomer, axis not shown; (P)) [Compound 70, (P)-5-Amino-4-(3-hydroxy-2,6-dimethylphenyl)-1-(trifluoromethyl)-1H-benzo[d]imidazole-6-carboxamide]

Second part, the molecule before the results:

Compound	IC50 (PKMYT1)	IC50 ([1]; Homo sapiens, HCC1806, 4 h)	IC50 [1]
Cc1ccc(O)c(C)c1-c1c(N)c(C(N)=O)nc2c1ncn2C [Compound 1, 6-Amino-7-(3-hydroxy-2,6-dimethylphenyl)-3-methyl-3H-imidazo[4,5-b]pyridine-5-carboxamide]	< 50 nM	50 to 500 nM	–
Cc1ccc(O)c(C)c1-c1cc(C(N)=O)nc2c1c(Cl)cn2C (single isomer, unassigned) [Compound 31]	≥ 5000 nM	–	–
Cc1c(O)cccc1-c1c(N)c(C(N)=O)cn2cc(C(F)(F)F)nc12 [Compound 49, 7-amino-8-(3-hydroxy-2-methylphenyl)-2-(trifluoromethyl)imidazo[1,2-a]pyridine-6-carboxamide]	50 to 500 nM	≥ 5000 nM	–
Cc1ccc(O)c(C)c1-c1cc(C(N)=O)nc2cn[nH]c12 [Compound 16, 7-(3-hydroxy-2,6-dimethylphenyl)-1H-pyrazolo[4,3-b]pyridine-5-carboxamide]	1000 to 5000 nM	≥ 5000 nM	–
Cc1c(O)cccc1-c1c(N)c(C(N)=O)nc2c1c(C(N)=O)nn2C [Compound 55, 5-amino-4-(3-hydroxy-2-methylphenyl)-1-methyl-1H-pyrazolo[3,4-b]pyridine-3,6-dicarboxamide]	< 50 nM	50 to 500 nM	–
Cc1ccc(O)c(C)c1-c1cc(C(N)=O)cc2cn[nH]c12 [Compound 37, 7-(3-hydroxy-2,6-dimethylphenyl)-1H-indazole-5-carboxamide]	1000 to 5000 nM	1000 to 5000 nM	–
Cc1c(Cl)cncc1-c1c(N)c(C(N)=O)nc2c1c(C#N)cn2C [Compound 11]	< 50 nM	–	–
Cc1ccc(O)c(C)c1-c1cc(C(N)=O)nc2c1c(C#N)cn2CC(F)(F)F (single isomer, unassigned) [Compound 25]	≥ 5000 nM	≥ 5000 nM	–
Cc1c(O)cccc1-c1c(N)c(C(N)=O)cn2c(C)nnc12 (single isomer, unassigned) [Compound 53, (M)-7-amino-8-(3-hydroxy-2-methylphenyl)-3-methyl-[1,2,4]triazolo[4,3-a]pyridine-6-carboxamide]	≥ 5000 nM	–	≥ 5000 nM
Cc1ccc(O)c(C)c1-c1cc(C(N)=O)nc2c1c(C#N)cn2CC(F)(F)F (racemic) [Compound 23, 3-cyano-4-(3-hydroxy-2,6-dimethylphenyl)-1-(2,2,2-trifluoroethyl)pyrrolo[2,3-b]pyridine-6-carboxamide]	< 50 nM	< 50 nM	–
Cc1ccc(O)c(C)c1-c1cc(C(=O)N(C)C)cc2cn[nH]c12 [Compound 39]	≥ 5000 nM	1000 to 5000 nM	–
Cc1c(O)cccc1-c1cc(C(N)=O)nc2c1c(C#N)cn2C [Compound 28, 3-cyano-4-(3-hydroxy-2-methylphenyl)-1-methyl-pyrrolo[2,3-b]pyridine-6-carboxamide]	50 to 500 nM	500 to 1000 nM	–
Cc1ccc(O)c(C)c1-c1cc(C(N)=O)cc2c1cnn2C [Compound 35, 4-(3-hydroxy-2,6-dimethylphenyl)-1-methyl-indazole-6-carboxamide]	1000 to 5000 nM	≥ 5000 nM	–
Cc1ccc(O)c(C)c1-c1cc(C(N)=O)nc2c1c(C#N)c(C)n2C (single isomer, unassigned) [Compound 33]	1000 to 5000 nM	–	–
Cc1ccc(O)c(C)c1-c1cc(C(N)=O)nc2c1c(C#N)c(C)n2C (single isomer, unassigned) [Compound 34]	< 50 nM	–	–
Cc1ccc(O)c(C)c1-c1cc(C(N)=O)nc2c1c(Cl)cn2C (single isomer, unassigned) [Compound 32]	50 to 500 nM	–	–
Cc1c(Cl)cncc1-c1c(N)c(C(N)=O)nc2c1c(C#N)cn2C [Compound 10]	50 to 500 nM	–	–

Source: patent US20260207565A1, “COMPOUNDS THAT INHIBIT PKMYT1” (Exelixis, Inc., priority 2022, published 2026)
